pIC50: −log10 of the molar value. Marks after values point to notes of the source that are not given here.
What was measured:
PI3K pathway = assay: Phase 1 study in patients with solid tumors: pharmacodynamics in surrogate and tumor tissue; type: in vivo, human
Description: (§1) The maximum tolerated dose (MTD) was defined as 600 mg (capsule) once daily (QD) on either a 21/7 (administered continuously for 21 days followed by 7 days rest) or a continuous daily dosing schedule. […] A dose-escalation study of a tablet formulation is ongoing. Ten additional patients have been enrolled in the expansion cohort to better define the activity of Compound A, and further studies are warranted.

xenograft tumor = assay: Preclinical xenograft model studies: tumor growth; type: in vivo; settings: preclinical xenograft models, well-tolerated doses
[1] = tested on: downstream effectors of PI3K; assay: Preclinical xenograft model studies: phosphorylation of downstream effectors of PI3K; type: in vivo; settings: preclinical xenograft models, well-tolerated doses
[2] = Phase 1 study in solid tumors: maximum tolerated dose and dose-limiting toxicities; type: in vivo
Description: as §1

[3] = tested on: relapsed/refractory lymphoma and CLL; assay: Phase 1 trial, lymphoma/CLL expansion cohort: best response; type: in vivo, human
Description: As part of a phase 1 single agent study in solid tumors, we administered Compound A to a dedicated expansion cohort of patients with relapsed/refractory lymphoma and CLL. The drug was administered orally daily, with continuous dosing in monthly cycles. A total of 15 patients were enrolled at three centers. An initial cohort of 3 patients was enrolled, followed by a safety review, with subsequent enrollment of the remaining 12 subjects. The median age of the patients was 66 years (range 28-81), 40% were male and 60% female.
This was a Phase 1, open-label, non-randomized trial of Compound A given orally as a single agent in subjects with lymphoma.
The key eligibility include the following: • Histologically confirmed diagnosis of relapsed or refractory lymphoma • Measureable disease • Adequate bone marrow function defined as: • ANC≥1000/mm^3 (CLL with ALC≥100,000/mm^3 required to have ANC≥500/mm^3) • Platelets≥30,000/mm^3 • Hemoglobin≥8 g/dL • Archival or fresh tumor tissue • No prior therapy with a selective PI3K inhibitor • Written informed consent. Results

class I PI3K isoform γ = class I PI3K isoform γ (Homo sapiens, UniProt P48736); settings: read-out: IC50 PI3K γ
Chain of class I PI3K isoform γ (P48736 whole entry, canonical isoform): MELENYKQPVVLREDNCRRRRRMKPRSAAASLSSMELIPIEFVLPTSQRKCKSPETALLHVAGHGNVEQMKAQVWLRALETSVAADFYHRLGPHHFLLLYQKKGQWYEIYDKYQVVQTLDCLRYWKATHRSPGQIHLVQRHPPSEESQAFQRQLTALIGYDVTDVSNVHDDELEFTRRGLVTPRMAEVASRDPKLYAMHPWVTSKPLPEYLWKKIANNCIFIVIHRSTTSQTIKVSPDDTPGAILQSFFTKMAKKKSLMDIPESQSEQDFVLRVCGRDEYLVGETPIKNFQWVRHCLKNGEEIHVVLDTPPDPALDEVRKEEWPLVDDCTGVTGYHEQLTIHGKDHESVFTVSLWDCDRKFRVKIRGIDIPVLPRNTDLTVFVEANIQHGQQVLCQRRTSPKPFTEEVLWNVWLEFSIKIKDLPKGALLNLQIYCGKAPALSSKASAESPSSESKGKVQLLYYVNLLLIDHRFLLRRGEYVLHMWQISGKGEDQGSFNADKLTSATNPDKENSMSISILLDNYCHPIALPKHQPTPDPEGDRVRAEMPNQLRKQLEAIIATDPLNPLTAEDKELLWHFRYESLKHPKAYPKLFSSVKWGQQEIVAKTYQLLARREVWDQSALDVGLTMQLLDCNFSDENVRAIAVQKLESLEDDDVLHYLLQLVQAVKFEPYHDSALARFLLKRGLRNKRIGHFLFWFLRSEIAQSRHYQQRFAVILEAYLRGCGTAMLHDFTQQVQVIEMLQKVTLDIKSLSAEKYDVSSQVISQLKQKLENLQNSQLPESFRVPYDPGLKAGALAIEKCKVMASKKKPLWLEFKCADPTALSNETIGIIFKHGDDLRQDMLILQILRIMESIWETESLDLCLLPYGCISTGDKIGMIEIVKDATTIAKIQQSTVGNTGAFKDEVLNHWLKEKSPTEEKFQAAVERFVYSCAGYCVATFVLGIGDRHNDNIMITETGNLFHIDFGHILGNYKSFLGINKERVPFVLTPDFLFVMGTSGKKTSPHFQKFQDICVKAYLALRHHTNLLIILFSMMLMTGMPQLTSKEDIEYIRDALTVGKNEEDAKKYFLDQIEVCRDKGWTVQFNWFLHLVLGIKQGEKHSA

class I PI3K isoform β = class I PI3K isoform β (Homo sapiens, UniProt P42338); settings: read-out: IC50 PI3K β
Chain of class I PI3K isoform β (P42338 whole entry, canonical isoform): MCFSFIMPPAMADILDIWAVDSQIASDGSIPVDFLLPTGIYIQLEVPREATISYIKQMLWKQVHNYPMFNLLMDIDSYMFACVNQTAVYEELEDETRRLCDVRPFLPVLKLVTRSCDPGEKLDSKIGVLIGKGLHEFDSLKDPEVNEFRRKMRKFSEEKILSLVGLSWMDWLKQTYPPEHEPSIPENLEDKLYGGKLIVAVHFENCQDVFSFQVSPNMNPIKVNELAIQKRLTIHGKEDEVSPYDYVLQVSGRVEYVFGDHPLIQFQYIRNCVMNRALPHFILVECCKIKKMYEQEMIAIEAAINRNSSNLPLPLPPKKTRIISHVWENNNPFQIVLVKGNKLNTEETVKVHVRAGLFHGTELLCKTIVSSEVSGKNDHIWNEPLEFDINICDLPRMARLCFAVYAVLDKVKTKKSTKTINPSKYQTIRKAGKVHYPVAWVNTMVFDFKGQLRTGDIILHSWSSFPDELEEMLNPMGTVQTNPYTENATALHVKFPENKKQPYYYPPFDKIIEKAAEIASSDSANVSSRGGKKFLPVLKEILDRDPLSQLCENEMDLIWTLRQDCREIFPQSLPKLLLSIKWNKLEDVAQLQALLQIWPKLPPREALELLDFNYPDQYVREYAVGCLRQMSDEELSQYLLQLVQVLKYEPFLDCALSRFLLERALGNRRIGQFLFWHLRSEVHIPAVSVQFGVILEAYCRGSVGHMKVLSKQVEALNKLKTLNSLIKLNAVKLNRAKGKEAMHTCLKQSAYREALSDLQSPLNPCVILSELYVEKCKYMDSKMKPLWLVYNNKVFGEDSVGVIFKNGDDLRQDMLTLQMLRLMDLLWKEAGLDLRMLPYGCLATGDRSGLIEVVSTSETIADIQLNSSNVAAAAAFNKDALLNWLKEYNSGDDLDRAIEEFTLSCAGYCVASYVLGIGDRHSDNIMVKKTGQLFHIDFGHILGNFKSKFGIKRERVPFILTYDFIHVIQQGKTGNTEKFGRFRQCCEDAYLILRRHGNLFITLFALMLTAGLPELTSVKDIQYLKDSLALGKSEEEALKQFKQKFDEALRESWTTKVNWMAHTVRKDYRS
Chain of class I PI3K isoform β (P27986 whole entry partner, canonical isoform): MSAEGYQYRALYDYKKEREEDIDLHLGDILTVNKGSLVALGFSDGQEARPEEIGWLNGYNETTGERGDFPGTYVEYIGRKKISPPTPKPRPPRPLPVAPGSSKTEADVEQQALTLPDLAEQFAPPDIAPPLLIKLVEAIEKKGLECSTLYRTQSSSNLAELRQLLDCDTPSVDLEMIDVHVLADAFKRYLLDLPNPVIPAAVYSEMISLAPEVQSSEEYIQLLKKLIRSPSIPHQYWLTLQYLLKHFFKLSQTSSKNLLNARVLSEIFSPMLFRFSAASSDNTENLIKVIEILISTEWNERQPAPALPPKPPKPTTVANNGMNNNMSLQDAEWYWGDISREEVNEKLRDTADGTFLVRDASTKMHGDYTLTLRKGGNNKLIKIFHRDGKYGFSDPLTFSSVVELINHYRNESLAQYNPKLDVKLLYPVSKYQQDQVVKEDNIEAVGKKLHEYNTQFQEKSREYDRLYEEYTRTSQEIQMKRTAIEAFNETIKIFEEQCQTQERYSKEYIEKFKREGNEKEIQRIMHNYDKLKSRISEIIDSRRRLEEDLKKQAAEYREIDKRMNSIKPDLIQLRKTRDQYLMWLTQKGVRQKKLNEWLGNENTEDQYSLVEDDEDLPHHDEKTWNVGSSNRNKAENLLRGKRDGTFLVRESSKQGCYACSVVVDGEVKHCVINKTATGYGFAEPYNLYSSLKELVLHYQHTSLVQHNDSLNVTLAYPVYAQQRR

[4] = tested on: downstream targets of PI3K, including pAKT and pEBP1; assay: Phosphorylation of downstream targets of PI3K in vitro and in vivo
class I PI3K isoform δ = class I PI3K isoform δ (Homo sapiens, UniProt O00329); settings: read-out: IC50 PI3K δ
Chain of class I PI3K isoform δ (O00329 whole entry, canonical isoform): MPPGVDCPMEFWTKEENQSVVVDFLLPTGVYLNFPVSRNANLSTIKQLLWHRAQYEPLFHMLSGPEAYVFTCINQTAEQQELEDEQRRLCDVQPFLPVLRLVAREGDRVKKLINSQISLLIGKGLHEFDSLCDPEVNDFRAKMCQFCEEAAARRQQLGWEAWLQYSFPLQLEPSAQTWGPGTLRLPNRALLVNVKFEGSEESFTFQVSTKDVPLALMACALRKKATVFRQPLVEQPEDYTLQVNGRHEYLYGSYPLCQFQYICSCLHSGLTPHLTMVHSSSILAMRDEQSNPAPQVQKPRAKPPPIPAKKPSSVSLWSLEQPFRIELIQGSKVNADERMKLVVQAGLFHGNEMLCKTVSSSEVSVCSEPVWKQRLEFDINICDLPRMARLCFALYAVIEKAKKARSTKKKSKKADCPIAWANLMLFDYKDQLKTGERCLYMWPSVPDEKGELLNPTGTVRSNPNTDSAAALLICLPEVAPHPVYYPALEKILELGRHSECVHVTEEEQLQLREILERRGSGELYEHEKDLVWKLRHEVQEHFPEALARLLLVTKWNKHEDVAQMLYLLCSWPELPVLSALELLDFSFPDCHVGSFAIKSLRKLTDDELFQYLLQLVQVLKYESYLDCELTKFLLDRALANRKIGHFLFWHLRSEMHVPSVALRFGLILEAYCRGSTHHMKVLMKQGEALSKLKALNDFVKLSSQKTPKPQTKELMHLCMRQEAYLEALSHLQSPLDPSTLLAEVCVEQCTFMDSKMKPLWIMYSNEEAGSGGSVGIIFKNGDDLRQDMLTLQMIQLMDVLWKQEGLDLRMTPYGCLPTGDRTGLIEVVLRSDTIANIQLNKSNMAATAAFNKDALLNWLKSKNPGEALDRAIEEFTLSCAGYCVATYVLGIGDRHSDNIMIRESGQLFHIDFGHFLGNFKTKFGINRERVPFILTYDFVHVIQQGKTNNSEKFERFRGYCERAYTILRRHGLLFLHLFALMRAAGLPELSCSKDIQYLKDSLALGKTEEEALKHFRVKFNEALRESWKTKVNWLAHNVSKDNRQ
Chain of class I PI3K isoform δ (P27986 whole entry partner, canonical isoform): as the sequence (P27986 whole entry partner, canonical isoform) above

[5] = Phase 1 trial, lymphoma/CLL expansion cohort: safety and tolerability; type: in vivo, human
mTOR = mTOR (Homo sapiens, UniProt P42345); settings: read-out: IC50 mTOR
[6] = Phase 1 trial, lymphoma/CLL expansion cohort: plasma pharmacokinetics; type: in vivo, human; settings: 600 mg oral daily, cycle 1, eight patients
Excerpt: The secondary objectives were to determine (a) the plasma pharmacokinetics of Compound A; and (b) the pharmacodynamic effects of Compound A on tumor tissue.
There was inter-patient variability, and the geometric mean was 7.6 fold.

[7] = Hodgkin Lymphoma, n = 2 evaluated
[8] = nineteen subjects, 600 mg capsule daily
[9] = nineteen subjects, unrelated to study drug

In the case of `COc1ccc(Cl)c(Nc2nc3ccccc3nc2NS(=O)(=O)c2cccc(NC(=O)C(C)(C)N)c2)c1` [Compound A, N-(3-{[(3-{[2-chloro-5-(methoxy)phenyl]amino}quinoxalin-2-yl)amino]sulfonyl}phenyl)-2-methylalaninamide], the effect as monotherapy (PI3K pathway; human, in vivo) was “primarily anti-proliferative, not pro-apoptotic”, the “PI3K pathway activation in surrogate tissue (PBMC, hair follicle, skin) and tumor tissue” value (PI3K pathway; once daily, patients with solid tumors) was “inhibited PI3K pathway activation” and the “PI3K and ERK pathway inhibition” value (PI3K pathway; well-tolerated doses) was “robust PI3K and ERK pathway inhibition”. For the same compound, the tumor growth (xenograft tumor) was “inhibited tumor growth”, the “phosphorylation of downstream effectors of PI3K” value [1] was “inhibited phosphorylation of downstream effectors of PI3K” and the “maximum tolerated dose (MTD)” value ([2]; capsule, once daily (QD), 21/7 or continuous daily dosing schedule) was 600 mg. The dose-limiting toxicities ([2]; human, in vivo) was “Grade 3 rash and Grade 3 hypersensitivity”, the “best response Stable Disease, number of patients” value (from here on “best response Stable Disease”) ([3]; CLL/SLL, n = 5 evaluated, 600 mg capsule once daily, after cycle 2) was 5^b and the “best response Stable Disease” value ([3]; Follicular Lymphoma, n = 2 evaluated, 600 mg capsule once daily) was 2^. For the same compound, the “best response Progressive Disease, number of patients” value [3, 7] was 1, the “best response Stable Disease” value [3, 7] was 1^e and the “best response Stable Disease” value ([3]; Transformed Lymphoma, n = 1 evaluated) was 1^d. For the same compound, the “best response Complete Response, number of patients” value ([3]; Waldenstrom's Macroglobulinemia, n = 1 evaluated, complete response at cycle 14) was 1^c, the activity in patients ([3]; in vivo) was “active in CLL and low-grade lymphomas” and the pIC50 (class I PI3K isoform γ) was 7.44. The pIC50 (class I PI3K isoform β) was 6.42, the “phosphorylation of downstream targets of PI3K, including pAKT and pEBP1” value [4] was “inhibits phosphorylation” and the pIC50 (class I PI3K isoform δ) was 7.64. The “grade 3-4 thrombocytopenia” value ([5]; 1/15 patients, oral daily continuous dosing) was 6.7%, the “hyperglycemia, grade 1-2 event” value ([5]; 1 of 15 patients) was 6.7% and the “hyperglycemia, grade 3-4 event” value ([5]; 1 of 15 patients) was 6.7%. For the same compound, the “grade 3-4 neutropenia” value ([5]; 4/15 patients, oral daily continuous dosing) was 26.7%, the “tolerability in patients with lymphoma and CLL” value ([5]; in vivo) was “well-tolerated” and the “Patients requiring dose modification due to toxicity: Hyperglycemia” value ([5]; nineteen subjects) was 1 (5) n (%). The “Patients requiring dose modification due to toxicity: Neutropenia” value ([5]; nineteen subjects) was 2 (11) n (%), the “Patients requiring dose modification due to toxicity: Rash” value ([5]; nineteen subjects) was 1 (5) n (%) and the “Abdominal Pain, All Adverse Events, All Grades” value [5, 8] was 4 (21) n (%). The “Abdominal Pain, All Adverse Events, Grade ≥3” value [5, 8] was 1 (5) n (%), the “Abdominal Pain, Related Adverse Events, All Grades” value [5, 8] was 2 (11) n (%) and the “Abdominal Pain, Related Adverse Events, Grade ≥3” value [5, 8] was 0 n (%). For the same compound, the “Anemia, All Adverse Events, All Grades” value [5, 8] was 4 (21) n (%), the “Anemia, All Adverse Events, Grade ≥3” value [5, 8] was 3 (16) n (%) and the “Anemia, Related Adverse Events, All Grades” value [5, 8] was 1 (5) n (%). For the same compound, the “Anemia, Related Adverse Events, Grade ≥3” value [5, 8] was 0 n (%), the “Cough, All Adverse Events, All Grades” value [5, 8] was 6 (32) n (%) and the “Cough, All Adverse Events, Grade ≥3” value [5, 8] was 1 (5) n (%). The “Cough, Related Adverse Events, All Grades” value [5, 8] was 0 n (%), the “Cough, Related Adverse Events, Grade ≥3” value [5, 8] was 0 n (%) and the “Diarrhea, All Adverse Events, All Grades” value [5, 8] was 12 (63) n (%). The “Diarrhea, All Adverse Events, Grade ≥3” value [5, 8] was 1 (5) n (%), the “Diarrhea, Related Adverse Events, All Grades” value [5, 8] was 7 (37) n (%) and the “Diarrhea, Related Adverse Events, Grade ≥3” value [5, 8] was 1 (5) n (%). For the same compound, the “Dyspnea, All Adverse Events, All Grades” value [5, 8] was 4 (21) n (%), the “Dyspnea, All Adverse Events, Grade ≥3” value [5, 8] was 1 (5) n (%) and the “Dyspnea, Related Adverse Events, All Grades” value [5, 8] was 0 n (%). For the same compound, the “Dyspnea, Related Adverse Events, Grade ≥3” value [5, 8] was 0 n (%), the “Fatigue, All Adverse Events, All Grades” value [5, 8] was 5 (26) n (%) and the “Fatigue, All Adverse Events, Grade ≥3” value [5, 8] was 0 n (%). The “Fatigue, Related Adverse Events, All Grades” value [5, 8] was 0 n (%), the “Fatigue, Related Adverse Events, Grade ≥3” value [5, 8] was 0 n (%) and the “Hyperglycemia, All Adverse Events, All Grades” value [5, 8] was 4 (21) n (%). The “Hyperglycemia, All Adverse Events, Grade ≥3” value [5, 8] was 1 (5) n (%), the “Hyperglycemia, Related Adverse Events, All Grades” value [5, 8] was 4 (21) n (%) and the “Hyperglycemia, Related Adverse Events, Grade ≥3” value [5, 8] was 1 (5) n (%). For the same compound, the “Neutropenia, All Adverse Events, All Grades” value [5, 8] was 5 (26) n (%), the “Neutropenia, All Adverse Events, Grade ≥3” value [5, 8] was 5 (26) n (%) and the “Neutropenia, Related Adverse Events, All Grades” value [5, 8] was 4 (21) n (%). The “Neutropenia, Related Adverse Events, Grade ≥3” value [5, 8] was 4 (21) n (%), the “Pruritus, All Adverse Events, All Grades” value [5, 8] was 4 (21) n (%) and the “Pruritus, All Adverse Events, Grade ≥3” value [5, 8] was 1 (5) n (%). The “Pruritus, Related Adverse Events, All Grades” value [5, 8] was 2 (11) n (%), the “Pruritus, Related Adverse Events, Grade ≥3” value [5, 8] was 0 n (%) and the “Pyrexia, All Adverse Events, All Grades” value [5, 8] was 5 (26) n (%). For the same compound, the “Pyrexia, All Adverse Events, Grade ≥3” value [5, 8] was 1 (5) n (%), the “Pyrexia, Related Adverse Events, All Grades” value [5, 8] was 1 (5) n (%) and the “Pyrexia, Related Adverse Events, Grade ≥3” value [5, 8] was 0 n (%). For the same compound, the “Rash, All Adverse Events, All Grades” value [5, 8] was 4 (21) n (%), the “Rash, All Adverse Events, Grade ≥3” value [5, 8] was 1 (5) n (%) and the “Rash, Related Adverse Events, All Grades” value [5, 8] was 3 (16) n (%). For the same compound, the “Rash, Related Adverse Events, Grade ≥3” value [5, 8] was 1 (5) n (%), the “Patients requiring dose modification due to toxicity” value ([5]; nineteen subjects, total) was 7 (37) n (%) and the “Patients requiring dose modification due to toxicity: More than 1 event in the same patient” value ([5]; nineteen subjects, diarrhea, fever/pneumonia, fever/pneumonia/sepsis/ileus/fluid overload) was 1 (5) n (%). For the same compound, the “Patients requiring dose modification due to toxicity: Fever/hypotension” value [5, 9] was 1 (5) n (%), the “Patients requiring dose modification due to toxicity: Respiratory infection” value [5, 9] was 1 (5) n (%) and the pIC50 (mTOR) was < 4.82. For the same compound, the “geometric mean accumulation (AUC) on day 28” value [6] was 7.6 fold and the “mean (CV %) accumulation (AUC) on day 28” value ([6]; CV 88.1%) was “approximately 11.2 fold”.
